Measurements taken from patent US20200268804A1, “METHODS AND COMPOSITIONS TO MAINTAIN STEM CELL QUIESCENCE” (The Board of Trustees of the Leland Stanford Junior …, priority 2016, published 2020).

System: quiescent MuSCs
Experiment: Q-RT-PCR screening of candidate molecules for promotion of MuSC quiescence
Assay type: cell-based, mouse
Conditions: 500 quiescent MuSCs cultured 2.5 days with the molecule; gene expression signature
Text: FIG. 8. Screening of molecules titrated at different concentrations. Heat map analysis of gene expression profiles obtained from MuSCs cultured in different concentrations of candidate molecules. In 96 well plates, 500 MuSCs were directly isolated by FACS and cultured in the presence of the candidate molecules titrated at different concentrations. After 2.5 days, cells were collected for combinatorial Q-RT-PCR to screen for the conditions that result mostly closely resemble freshly isolated MuSCs based on the gene expression profiles. A heat map for absolute deviations from expression levels of freshly isolated quiescent MuSCs (QSC) is shown. On the X axis, the molecules tested and the different dilutions employed from the working concentrations are indicated as in FIG. 16. On the Y axis the names of the genes that were tested are listed. The gene names were organized in general functional groups. Each functional group is based on the main function and role in MuSCs.
Knowing that quiescent MuSCs have a unique transcriptional signature, we employed combinatorial QRT-PCR to screen for molecules that, when added to the medium, would promote MuSC quiescence. […]
Single Cell Q-RT-PCR. […] Biomark data was analyzed using Q-RT-PCR Analysis software (Fluidigm). […] For each amplicon, a limit of detection (LOD) was determined by running 10-fold serial dilutions of embryonic cDNA in 6 replicates. […]

`Nc1nc(Nc2ccc(S(N)(=O)=O)cc2)nn1C(=O)c1c(F)cccc1F` [JMJ-7706621] was tested, and the quiescence-promoting activity was “novel quiescence-promoting activity”.
